Results published in US8173771B2, “Humanin receptor or humanin-like polypeptide receptor” (Keio Univeristy, priority 2005, dated 2012).
Peptide text beside a SMILES is read from it.

Test system: HN receptor (HNR; CNTF-R/WSX-1/gp130) on F11 cells
Test: Immunofluorescence-based binding assay (2): biotin-HN / biotin-HNG binding to F11 cells
Design: species or system mouse
Experimental: A) F11 cells were seeded on 96-well plates coated with poly-L-lysine (7×10^3 cells/well). An indicated amount of biotin-HN or biotin-HNG was added to the cells with or without 10 μM of unlabelled HNG or HNA, followed by a binding assay based on immunofluorescence reaction (2) (left panels). On the other hand, F11 cells were transfected with 0.5 μg of pcDNA3.1/GS-human CNTF-R, pEF1/MycHis-human WSX-1, and 1.0 μg of pCAG-human gp130. At 24 hrs after the transfection, the cells were re-seeded on 96-well plates coated with poly-L-lysine (7×10^3 cells/well). After 36 hrs the re-seeding, an indicated amount of biotin-HN or biotin-HNG was added to the cells with or without 10 μM of unlabeled HNG or HNA, followed by a binding assay based on immunofluorescence reaction (2) (right panels).
B) F11 cells were transfected with 0.5 μg of pRNA-U1.6/Shuttle vector, pRNA-U6.1/Shuttle-WSX-1 siRNA, pRNA-U6.1/Shuttle-CNTF-R siRNA, both pRNA-U6.1/Shuttle-WSX-1 siRNA and pRNA-U6.1/Shuttle-CNTF-R siRNA (0.5 μg each), pRNA-U6.1/Shuttle-FPR2 siRNA or pRNA-U6.1/Shuttle-LIFR siRNA. The total amount of vectors was adjusted to be 1.0 μg by including a backbone vector. At 24 hrs after the transfection, an indicated amount of biotin-HNG was added with or without unlabeled HNG, followed by a binding assay based on immunofluorescence reaction (2) at 72 hrs after the transfection.
E) F11 cells on 6-well plate (7×10^4 cells/well) were transfected with 1.0 μg of pRNA-U6.1/Shuttle vector, pRNA-U6.1/Shuttle-Bax siRNA, or both pRNA-U6.1/Shuttle-WSX-1 siRNA and pRNA-U6.1/Shuttle-CNTF-R siRNA (0.5 μg each). At 72 hrs after the transfection, the cells were added with an indicated amount of biotin-HN with or without unlabeled HN or HNA (100 μM) and subjected to an HN-binding assay based on immunofluorescence.
F11 cells (7×10^4/well in 6-well plates) were replated into 96-well plates (7×10^3 cells/well) at 24 hrs after transfection with indicated amounts of the plasmids encoding mycHis-WSX or V5-CNTF-R, and with PCAG-human gp130 if required. At 36 hrs after transfection, the cells were added with biotin-labeled HN or HNG of indicated concentrations in the presence or the absence of HNG (S14G-HN) or HNA (C8A-HN) of indicated concentrations (Hashimoto et al., 2001 a). After 6 hrs incubation, they were fixed with 4% paraformaldehyde in PBS for 30 min. After washing with PBS, cells were stained with FITC-conjugated avidin (Molecularprobe, Eugene, Oreg., USA). Immunofluorescence intensity was measured (excitation=485 nm, emission=535 nm) with a spectrofluorometer (Wallac1420 ARVOsx Multi Label Counter). Immunohistochemical analysis was done with a laser-scanning, confocal microscope LSM (Carl Zeiss, Germany).

Compound: CC[C@H](C)[C@H](NC(=O)[C@H](CCC(=O)O)NC(=O)CNC(=O)[C@@H](NC(=O)[C@H](CC(C)C)NC(=O)[C@H](CC(C)C)NC(=O)[C@H](CC(C)C)NC(=O)[C@H](CC(C)C)NC(=O)[C@H](CS)NC(=O)[C@H](CO)NC(=O)[C@H](Cc1ccccc1)NC(=O)CNC(=O)[C@H](CCCNC(=N)N)NC(=O)[C@@H]1CCCN1C(=O)[C@H](C)NC(=O)[C@@H](N)CCSC)[C@@H](C)O)C(=O)N[C@@H](CC(=O)O)C(=O)N[C@@H](CC(C)C)C(=O)N1CCC[C@H]1C(=O)N[C@H](C(=O)N[C@@H](CCCCN)C(=O)N[C@@H](CCCNC(=N)N)C(=O)N[C@@H](CCCNC(=N)N)C(=O)N[C@@H](C)C(=O)O)C(C)C [HNG, S14 G-Humanin] (H-MAPRGFSCLLLLTGEIDLPVKRRA-OH; N-terminus and C-terminus assumed)
- binding to F11 cells (expression of endogenous CNTF-R and WSX-1 simultaneously decreased by siRNA): almost completely inhibited
- binding to F11 cells (expression of endogenous CNTF-R or WSX-1 decreased by siRNA): significantly decreased
